Measured values from patent publication US8501754B2, “Quinazolinamide derivatives” (MERCK PATENT GmbH, priority 2007, dated 2013).

Molecular target: Recombinant human HSP90a (Homo sapiens, UniProt P07900)
Assay: radioligand filter binding test ([3H]17AAG competition) for HSP90 inhibition
Conditions: competition with [3H]17AAG 0.08 μM, HSP90 1.5 μg/assay, 22° C., 30 min
Description: Test Method for the Measurement of HSP90 Inhibitors
The binding of geldanamycin or 17-allylamino-17-demethoxygeldanamycin (17AAG) to HSP90 and competitive inhibition thereof can be utilized in order to determine the inhibitory activity of the compounds according to the invention (Carreras et al. 2003, Chiosis et al. 2002).
In the specific case, a radioligand filter binding test is used. The radioligand used here is tritium-labelled 17-allylaminogeldanamycin, [3H]17AAG. This filter binding test allows a targeted search for inhibitors which interfere with the ATP binding site.
Recombinant human HSP90a (E. coli expressed, 95% purity);
[3H]17AAG (17-allylaminogeldanamycin, [allylamino-2,3-^3H. Specific activity: 1.11×10^12 Bq/mmol (Moravek, MT-1717);
HEPES filter buffer (50 mM HEPES, pH 7.0, 5 mM MgCl2, BSA 0.01%) Multiscreen FB (1 μm) filter plate (Millipore, MAFBNOB 50).
The 96-well microtitre filter plates are firstly irrigated and coated with 0.1% of polyethylenimine.
The test is carried out under the following conditions:
Reaction temperature 22° C.
Reaction time: 30 min., shaking at 800 rpm
50 mM HEPES HCl, pH 7.0, 5 mM MgCl2, 0.01% (w/v) of BSA
At the end of the reaction, the supernatant in the filter plate is removed by suction with the aid of a vacuum manifold (Multiscreen Separation System, Millipore), and the filter is washed twice.
The filter plates are then measured in a beta counter (Microbeta, Wallac) with scintillator (Microscint 20, Packard).
“% of control” is determined from the “counts per minutes” values, and the IC-50 value of a compound is calculated therefrom.

IC50 [nM]	SMILES
10 to 1000	CCNCc1ccccc1-c1ccc2nc(N)nc(C(=O)N3Cc4ccccc4C3)c2c1 [Compound A978]
10 to 1000	Nc1nc(C(=O)N2Cc3ccccc3C2)c2cc(-c3ccccc3S(=O)(=O)N3CCNCC3)ccc2n1 [Compound A981]
10 to 1000	CN1CCN(Cc2cc(O)ccc2-c2ccc3nc(N)nc(C(=O)N4Cc5ccccc5C4)c3c2)CC1 [Compound A1002]
10 to 1000	Nc1nc(C(=O)N2Cc3ccccc3C2)c2cc(-c3ccc(O)cc3CO)ccc2n1 [Compound A1006]
10 to 1000	Nc1nc(C(=O)N2Cc3ccccc3C2)c2cc(-c3ccccc3C(=O)N3CCNCC3)ccc2n1 [Compound A1007]

The remaining lines, values behind:

SMILES	IC50 [nM]
CN1CCN(S(=O)(=O)c2ccccc2-c2ccc3nc(N)nc(C(=O)N4Cc5ccccc5C4)c3c2)CC1 [Compound A980, {2-amino-6-[2-(4-methylpiperazine-1-sulfonyl)phenyl]quinazolin-4-yl}-(1,3-dihydroisoindol-2-yl)methanone]	10 to 1000
CN(C)CCN(C)S(=O)(=O)c1ccccc1-c1ccc2nc(N)nc(C(=O)N3Cc4ccccc4C3)c2c1 [Compound A982]	10 to 1000
CN(C)CCOc1ccccc1-c1ccc2nc(N)nc(C(=O)N3Cc4ccccc4C3)c2c1 [Compound A986, {2-amino-6-[2-(2-dimethylaminoethoxy)phenyl]quinazolin-4-yl}-(1,3-dihydroisoindol-2-yl)methanone]	10 to 1000
Nc1nc(C(=O)N2Cc3ccccc3C2)c2cc(C#CCCO)ccc2n1 [Compound A997]	10 to 1000
